From patent publication US6632669B2, “Plant kinases and methods of modulation of their activity in plants” (The Salk Institute for Biological Studies, priority 1999, dated 2003)

Experiments:
35S::PID plants = assay: Root growth in response to exogenous auxin in 35S::PID plants (selected on kanamycin plates with NAA); assay type: in vivo, Arabidopsis; conditions: for Lateral roots / Primary root length: mean ± standard deviation
Description: (§1) Plants were grown in florescent light under long-day conditions (16 hours light, 8 hours dark). Wild type was Columbia. Transgenic plants were generated by vacuum infiltration (Bechtold et al. (1993) C. R. Acad. Sci. 316:1194-1199). For root gravitropism experiments, seeds were grown on vertically oriented 1/2×MS plates at 24° C.
The failure of 35S::PID plants to develop lateral roots in response to exogenous auxin can be explained by defects in either auxin uptake or response. To distinguish between these possibilities, 35S: PID plants was selected on plates containing kanamycin and 0, 0.1, 1.0 or 10.0 μM NAA.

35S::PID T2 plants = assay: Lateral root formation of 35S::PID T2 plants grown on plates supplemented with NAA; assay type: in vivo, Arabidopsis; conditions: 10 days on 0.1 μm NAA
Description: as §1
To determine whether the loss of lateral root formation in 35::PID plants could be bypassed by exogenous auxin, T2 plants were grown on plates supplemented with the synthetic auxin-analog NAA ([…]). […] As in the previous experiment, there was a perfect correlation between loss of lateral root formation and agravitropic root growth.

Arabidopsis MAP kinase = conditions: tobacco cell extract, protoplasts treated with 2,4-D; cited from earlier work

SMILES | Lateral root growth at very high NAA concentrations (35S::PID plants; 35S::PID plants) | Primary root elongation with increasing NAA concentration (35S::PID plants; 35S::PID plants, 0, 0.1, 1.0 or 10.0 μM NAA) | Lateral roots (35S::PID plants; 35S::PID plants, [NAA] 0.1 μM) | Primary root length (35S::PID plants; 35S::PID plants, [NAA] 0.1 μM) [mm] | Lateral roots (35S::PID plants; 35S::PID plants, [NAA] 1 μM) | Primary root length (35S::PID plants; 35S::PID plants, [NAA] 1 μM) [mm] | Lateral roots (35S::PID plants; 35S::PID plants, [NAA] 10 μM) | Primary root length (35S::PID plants; 35S::PID plants, [NAA] 10 μM) [mm] | Bypass of the block in lateral root formation caused by PID overexpression (35S::PID T2 plants; T2 plants) | Average number of lateral roots in seedlings that produced lateral roots (35S::PID T2 plants; T2 progeny of 35S::PID, 11 of 37 germinated seedlings (range 18-31), remaining 26 produced none) | Effectiveness of MAP kinase phosphorylation by extract of treated protoplasts versus extracts from auxin-starved cultures (Arabidopsis MAP kinase)
O=C(O)Cc1ccc2ccccc2c1 [NAA, β-napthaleneacetic acid] | still inhibited | progressively inhibited | 0.1 ± 0.3 | 11.6 ± 5.9 | 0.1 ± 0.3 | 6.0 ± 3.1 | 0.7 ± 1.2 | 1.4 ± 0.5 | did not overcome the block in lateral root formation | 24 | 
O=C(O)COc1ccc(Cl)cc1Cl [2,4-D] |  |  |  |  |  |  |  |  |  |  | three to four-fold more effective
